Data set [1] concerns Staphylococcus aureus NCTC 13373 (mecA-positive; methicillin-resistant). Put plainly: In vitro antibacterial activity, MIC (UCL School of Pharmacy assay), MRSA. The data set is classed as cell-based. As to conditions: for MIC: Staphylococcus aureus, UCL, read-out: MRSA MIC (UCL). In a few lines: (§1)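 Growth inhibition was read as MIC across a two-fold range of 32 down to 0.03 μg/mL in isosensitest broth. Bacteria from overnight plates were set to A600 0.1 in PBS, about 1 × 10^8 CFU/mL, and diluted 1:100 before inoculation.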

The subject of data set [2] is S. aureus ATCC 25923 (methicillin-susceptible). The data set is described as follows: In vitro antibacterial activity, MIC (UCL), MSSA. The conditions noted are these: for MIC: Staphylococcus aureus, read-out: MSSA MIC (UCL). In kind it is cell-based, Staphylococcus aureus. In a few lines: as §1
Data set [3] concerns Enterococcus faecalis ATCC 51299 (vanA-positive; vancomycin-resistant). The data set is described as follows: In vitro antibacterial activity, MIC (UCL), VRE. In kind it is cell-based. The conditions noted are these: for MIC: read-out: VRE MIC (UCL). The method in brief: as §1
The next data set is described as follows: Aqueous solubility. As to conditions: NEU. The data set is classed as physicochemical. From the text:
To guide our initial SAR exploration work, we obtained liver microsomal intrinsic clearance data for 5 of the 18 compounds assayed by CO-ADD (Supporting Information - CDCO Report and Supporting Information - Biology). We then acquired intrinsic clearance (CLint), plasma protein binding (PPB), and solubility data on further compounds throughout the SAR campaign (Supporting Information - Biology, Tables S3 and S4). […] The more polar compounds (lower LogD) had reduced PPB and were more metabolically stable.
(§2) Table S4. ADME and Pharmacokinetics: compounds only appearing in the Supplementary […]
(§3) MRSA Aqueous HLM CLint Rat Hep CLint
(§4) Cmpd MIC Solubility Human PPB (%) (µL/min/mg (µL/min/10x6 LogD7.4
(§5) (µg/mL) (µM) protein) cells)
(§6) ADME and toxicity for compounds were measured according to procedures outlined in the manuscript submitted in parallel to this one;2 other procedures were used for those compounds analysed by Monash University (in vitro ADME) or UCL (toxicity), both described in the main

Data set [4] in a line: Human plasma protein binding (PPB). The conditions noted are these: human, plasma, human plasma, NEU; read-out: Human PPB (NEU) (converted). The data set is classed as in vitro ADME.
Text: (§7) To guide our initial SAR exploration work, we obtained liver microsomal intrinsic clearance data for 5 of the 18 compounds assayed by CO-ADD (Supporting Information - CDCO Report and Supporting Information - Biology). We then acquired intrinsic clearance (CLint), plasma protein binding (PPB), and solubility data on further compounds throughout the SAR campaign (Supporting Information - Biology, Tables S3 and S4).
as §2, §3, §4, §5, §6

A short description of data set [5]: Human liver microsome intrinsic clearance. The conditions noted are these: human liver microsomes, NEU. The data set is classed as in vitro ADME.
Text: as §7, §2, §3, §4, §5, §6
For orientation: Microsomes from liver hold many membrane-bound enzymes, among them those of drug oxidation.

Data set [6] is described as follows: Rat hepatocyte intrinsic clearance. The conditions noted are these: rat hepatocytes, NEU. In kind it is in vitro ADME.
Text: as §7, §2, §3, §4, §5, §6

Data set [7] relates to MRC-5SV2 (human lung fibroblast cell line). Put plainly: Toxicity against MRC-5SV2. In kind it is cell-based. The conditions noted are these: MRC5 cells. Here is the method: as §6
Data set [8] concerns PMM (primary mouse macrophages). The data set is described as follows: Toxicity against PMM. The data set is classed as cell-based. As to conditions: PMM. The protocol:
as §6

Another data set deals with VSE. The data set is described as follows: In vitro antibacterial activity, MIC, VSE. The data set is classed as cell-based. The conditions noted are these: for MIC: read-out: VSE MIC (UCL).

Molecules are shown by their SMILES. In brackets after ≈: the same amount, converted by molar mass. Bounds are passed on as bounds.

The term MIC denotes the lowest concentration that inhibits growth of the organism. In the case of `CC(C)CN(c1ccc(F)cc1)c1c(-c2ccccn2)nc2ccccn12` [OSA_000983], the MIC in data set [1] was 2 µg/mL (≈ 5.55 µM); in [2], 4 µg/mL (≈ 11.1 µM); in data set [3], 8 µg/mL (≈ 22.2 µM). For the same compound, the “Aqueous Solubility (NEU)” value in the data set “Aqueous solubility” turned out to be 8 µM. Moreover, the fraction unbound in data set [4] is 0.0042. In data set [5], the “HLM CLint (NEU)” value came to 58.8 uL/min/mg protein. In addition, the “Rat Hep CLint (NEU)” value in [6] is 234 uL/min/10x6 cells. Moreover, in data set [7], the “MRC5 TC50” value came out at 54 µM. The “PMM TC50” value in [8] was determined as 23 µM.

`Clc1ccn2c(-c3ccc4occc4c3)c(-c3ccccn3)nc2c1` [OSA_000985]: the MIC was determined as 8 µg/mL (≈ 23.1 µM) in data set [1], 8 µg/mL (≈ 23.1 µM) in data set [2], 16 µg/mL (≈ 46.3 µM) in data set [3] and 16 µg/mL (≈ 46.3 µM) in the data set with VSE.

On to `Fc1cc(-c2c(-c3ccccn3)nc3ccccn23)ccn1` [OSA_000986], for which the MIC (in data set [1]; in [2]; in data set [3]; in the data set with VSE) was more than 32 µg/mL in each case.

Take `NC(=O)c1ccc(-n2c(-c3ccccn3)nc3ccccc32)cc1` [OSA_000989]: the MIC (in [1]; in data set [2]; in [3]; in the data set on VSE) was more than 32 µg/mL throughout. Moreover, the “MRC5 TC50” value in data set [7] was 64 µM. For the same compound, the “PMM TC50” value in data set [8] was found to be 64 µM.

Regarding `N#Cc1ccc(-n2c(-c3ccccn3)nc3ccccc32)cc1` [OSA_000990], the MIC (in data set [1]; in data set [2]; in data set [3]; in the data set on VSE) was more than 32 µg/mL in each case. Moreover, in data set [7], the “MRC5 TC50” value was determined as 64 µM. In addition, the “PMM TC50” value in [8] came to 64 µM.

For the compound `c1ccc(-c2nc3ccccc3n2-c2ccc3occc3c2)nc1` [OSA_000991], the MIC (in data set [1]; in data set [2]; in [3]; in the data set on VSE) was more than 32 µg/mL throughout. For the same compound, in data set [7], the “MRC5 TC50” value is 64 µM. Further, the “PMM TC50” value in data set [8] was found to be 38.63 µM.

Regarding `c1ccc(-n2c(-c3ccccn3)nc3ccccc32)cc1` [OSA_000992], the minimum inhibitory concentration (MIC) (in data set [1]; in [2]; in data set [3]; in the data set with VSE) was more than 32 µg/mL each time. The “MRC5 TC50” value in data set [7] stood at 64 µM. In addition, the “PMM TC50” value in data set [8] came out at 64 µM.

Regarding `c1ccc(Cn2c(-c3ccccn3)nc3ccccc32)cc1` [OSA_000993], the MIC (in data set [1]; in [2]; in data set [3]; with VSE) was more than 32 µg/mL in each case. The “MRC5 TC50” value in data set [7] stood at 64 µM. In addition, the “PMM TC50” value in data set [8] was found to be 64 µM.

As to `c1ccc(-c2nc3ccccc3n2-c2ccc(N3CCCCC3)cc2)nc1` [OSA_000994], the MIC in [1] is 16 µg/mL (≈ 45.1 µM); in data set [2] it was 32 µg/mL (≈ 90.3 µM); in [3] it was 32 µg/mL (≈ 90.3 µM); with VSE it was 32 µg/mL (≈ 90.3 µM). Besides, the “MRC5 TC50” value in data set [7] is 19.81 µM. Also, the “PMM TC50” value in data set [8] worked out at 15.32 µM.

For the compound `c1ccc(-c2nc3ccccc3n2-c2ccc(N3CCOCC3)cc2)nc1` [OSA_000995], the MIC (in [1]; in data set [2]; in data set [3]; with VSE) was more than 32 µg/mL in each case. Further, the “MRC5 TC50” value in data set [7] worked out at 64 µM. Further, the “PMM TC50” value in data set [8] worked out at 64 µM.

For the compound `N#CCc1ccc(-n2c(-c3ccccn3)nc3ccccc32)cc1` [OSA_000996], the MIC was more than 32 µg/mL in [1], 32 µg/mL (≈ 103 µM) in [2], more than 32 µg/mL in [3] and more than 32 µg/mL in the data set on VSE. The “MRC5 TC50” value in [7] stood at 64 µM. Further, the “PMM TC50” value in [8] was found to be 64 µM.

On to `Clc1ccn2c(-c3ccc4occc4c3)c(-c3ccccn3)nc2c1` [compound 985], for which, in [1], the “MRSA MIC” value was 8 µg/mL. In addition, the “MSSA MIC” value in data set [2] was 8 µg/mL. In data set [3], the “VRE MIC” value came out at 16 µg/mL. In addition, the “VSE MIC” value in the data set with VSE came out at 16 µg/mL.
